In the supplement of paper PMC10307832:

Experiments:
Experiment in all cases: relative viability (nuclei count vs DMSO), 5 days (fraction); higher = more cells survive
LXF-289 = tested on: LXF-289
In short: (§1)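 Medians of duplicate plates are given as relative viability. That measure is the nuclei count in treated wells divided by the count in vehicle wells. Counts were taken on 4× images of lung cancer cell lines in 1536-well plates, 5 days after pin-tool dosing the day after seeding with one drug alone or a fixed anchor-drug dose plus five library-drug doses (not always all listed) in √10 steps.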

SW 900 = tested on: SW 900
In short: as §1

NCI-H520 = tested on: NCI-H520
In short: as §1

NCI-H1651 = tested on: NCI-H1651
In short: as §1

PC-14 = tested on: PC-14
In short: as §1

NCI-H1355 = tested on: NCI-H1355
In short: as §1

NCI-H1915 = tested on: NCI-H1915
In short: as §1

NCI-H1755 = tested on: NCI-H1755
In short: as §1

NCI-H596 = tested on: NCI-H596
In short: as §1

NCI-H322M = tested on: NCI-H322M
In short: as §1

NCI-H3122 = tested on: NCI-H3122
In short: as §1

NCI-H661 = tested on: NCI-H661
In short: as §1

RERF-LC-KJ = tested on: RERF-LC-KJ
In short: as §1

NCI-H727 = tested on: NCI-H727
In short: as §1

NCI-H1563 = tested on: NCI-H1563
In short: as §1

LCLC-103H = tested on: LCLC-103H
In short: as §1

SK-MES-1 = tested on: SK-MES-1
In short: as §1

NCI-H441 = tested on: NCI-H441
In short: as §1

NCI-H2347 = tested on: NCI-H2347
In short: as §1

NCI-H460 = tested on: NCI-H460
In short: as §1

## COc1nc(C)cnc1NS(=O)(=O)c1cccnc1-c1ccc(-c2nnco2)cc1 [Zibotentan] + COc1cc2c(Oc3ccc(NC(=O)C4(C(=O)Nc5ccc(F)cc5)CC4)cc3F)ccnc2cc1OCCCN1CCOCC1 [Foretinib] (partner 0.25 µM)
LXF-289; first compound 0.08 µM
  relative viability: 0.965
LXF-289; first compound 0.253 µM
  relative viability: 0.95
LXF-289; first compound 0.8 µM
  relative viability: 1.05
LXF-289; first compound 2.53 µM
  relative viability: 0.954
SW 900; first compound 0.08 µM
  relative viability: 0.997
SW 900; first compound 0.253 µM
  relative viability: 0.811
SW 900; first compound 0.8 µM
  relative viability: 0.887
SW 900; first compound 2.53 µM
  relative viability: 0.857
NCI-H520; first compound 0.08 µM
  relative viability: 0.811
NCI-H520; first compound 0.253 µM
  relative viability: 0.738
NCI-H520; first compound 0.8 µM
  relative viability: 0.586
NCI-H520; first compound 2.53 µM
  relative viability: 0.742
NCI-H1651; first compound 0.08 µM
  relative viability: 0.815
NCI-H1651; first compound 0.253 µM
  relative viability: 0.569
NCI-H1651; first compound 0.8 µM
  relative viability: 0.488
NCI-H1651; first compound 2.53 µM
  relative viability: 0.99
PC-14; first compound 0.08 µM
  relative viability: 1.03
PC-14; first compound 0.253 µM
  relative viability: 0.897
PC-14; first compound 0.8 µM
  relative viability: 0.924
PC-14; first compound 2.53 µM
  relative viability: 1
NCI-H1355; first compound 0.08 µM
  relative viability: 0.988
NCI-H1355; first compound 0.253 µM
  relative viability: 1.02
NCI-H1355; first compound 0.8 µM
  relative viability: 0.955
NCI-H1355; first compound 2.53 µM
  relative viability: 0.927
NCI-H1915; first compound 0.08 µM
  relative viability: 1.16
NCI-H1915; first compound 0.253 µM
  relative viability: 1.1
NCI-H1915; first compound 0.8 µM
  relative viability: 1.06
NCI-H1915; first compound 2.53 µM
  relative viability: 1.07
NCI-H1755; first compound 0.08 µM
  relative viability: 0.943
NCI-H1755; first compound 0.253 µM
  relative viability: 0.897
NCI-H1755; first compound 0.8 µM
  relative viability: 0.897
NCI-H1755; first compound 2.53 µM
  relative viability: 0.929
NCI-H596; first compound 0.08 µM
  relative viability: 0.899
NCI-H596; first compound 0.253 µM
  relative viability: 0.794
NCI-H596; first compound 0.8 µM
  relative viability: 0.768
NCI-H596; first compound 2.53 µM
  relative viability: 0.914
NCI-H322M; first compound 0.08 µM
  relative viability: 1.03
NCI-H322M; first compound 0.253 µM
  relative viability: 0.782
NCI-H322M; first compound 0.8 µM
  relative viability: 0.98
NCI-H322M; first compound 2.53 µM
  relative viability: 1.02
NCI-H3122; first compound 0.08 µM
  relative viability: 1.02
NCI-H3122; first compound 0.253 µM
  relative viability: 0.975
NCI-H3122; first compound 0.8 µM
  relative viability: 0.983
NCI-H3122; first compound 2.53 µM
  relative viability: 1.02
NCI-H661; first compound 0.08 µM
  relative viability: 1.01
NCI-H661; first compound 0.253 µM
  relative viability: 0.969
NCI-H661; first compound 0.8 µM
  relative viability: 0.995
NCI-H661; first compound 2.53 µM
  relative viability: 1.01
RERF-LC-KJ; first compound 0.08 µM
  relative viability: 0.836
RERF-LC-KJ; first compound 0.253 µM
  relative viability: 0.885
RERF-LC-KJ; first compound 0.8 µM
  relative viability: 0.809
RERF-LC-KJ; first compound 2.53 µM
  relative viability: 0.849
NCI-H727; first compound 0.08 µM
  relative viability: 1.07
NCI-H727; first compound 0.253 µM
  relative viability: 0.862
NCI-H727; first compound 0.8 µM
  relative viability: 0.893
NCI-H727; first compound 2.53 µM
  relative viability: 0.811
NCI-H1563; first compound 0.08 µM
  relative viability: 0.985
NCI-H1563; first compound 0.8 µM
  relative viability: 1.02
NCI-H1563; first compound 2.53 µM
  relative viability: 0.979
LCLC-103H; first compound 0.08 µM
  relative viability: 0.928
LCLC-103H; first compound 0.253 µM
  relative viability: 0.886
LCLC-103H; first compound 0.8 µM
  relative viability: 0.797
LCLC-103H; first compound 2.53 µM
  relative viability: 0.838
SK-MES-1; first compound 0.08 µM
  relative viability: 0.974
SK-MES-1; first compound 0.253 µM
  relative viability: 0.886
SK-MES-1; first compound 0.8 µM
  relative viability: 0.974
SK-MES-1; first compound 2.53 µM
  relative viability: 1.02
NCI-H441; first compound 0.08 µM
  relative viability: 1.11
NCI-H441; first compound 0.253 µM
  relative viability: 0.745
NCI-H441; first compound 0.8 µM
  relative viability: 1.03
NCI-H441; first compound 2.53 µM
  relative viability: 1.04
NCI-H2347; first compound 0.08 µM
  relative viability: 0.995
NCI-H2347; first compound 0.253 µM
  relative viability: 0.896
NCI-H2347; first compound 0.8 µM
  relative viability: 0.947
NCI-H2347; first compound 2.53 µM
  relative viability: 0.655
NCI-H460; first compound 0.08 µM
  relative viability: 1.09
NCI-H460; first compound 0.253 µM
  relative viability: 0.827
NCI-H460; first compound 0.8 µM
  relative viability: 0.986
NCI-H460; first compound 2.53 µM
  relative viability: 1.05
